Assay [1] has as its target Alkaline phosphatase, placental type (Homo sapiens, UniProt P05187). The assay is described as follows: PLAP enzyme inhibitors, confirmation, biochemical, luminescence (AID 1512). It is filed as functional.
The target in assay [2] is T1, Alkaline phosphatase, tissue-nonspecific isozyme (Homo sapiens, UniProt P05186).
T1 sequence (P05186 whole entry): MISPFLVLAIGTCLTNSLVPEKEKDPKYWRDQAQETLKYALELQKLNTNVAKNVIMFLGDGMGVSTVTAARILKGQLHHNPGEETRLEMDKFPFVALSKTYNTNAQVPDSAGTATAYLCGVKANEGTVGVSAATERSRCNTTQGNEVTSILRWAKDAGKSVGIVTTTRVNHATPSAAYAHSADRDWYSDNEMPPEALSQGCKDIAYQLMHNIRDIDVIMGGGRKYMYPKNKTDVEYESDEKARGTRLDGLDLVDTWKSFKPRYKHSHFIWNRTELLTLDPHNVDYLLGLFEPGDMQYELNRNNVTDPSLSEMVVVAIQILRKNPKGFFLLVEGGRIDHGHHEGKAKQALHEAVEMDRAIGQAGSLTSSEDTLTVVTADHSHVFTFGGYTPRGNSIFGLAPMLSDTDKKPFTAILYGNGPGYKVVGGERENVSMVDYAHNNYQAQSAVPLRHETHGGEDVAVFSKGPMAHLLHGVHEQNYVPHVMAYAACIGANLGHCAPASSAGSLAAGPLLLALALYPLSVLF
The assay is described as follows: human TNAP enzyme inhibitors, SAR follow-up, biochemical, luminescent, dose response (AID 1056).

The target in assay [3] is Glyceraldehyde-3-phosphate dehydrogenase (Homo sapiens, UniProt P04406).
A further assay addresses T2, Hexokinase HKDC1 (Homo sapiens, UniProt Q2TB90).
T2 sequence (Q2TB90 whole entry): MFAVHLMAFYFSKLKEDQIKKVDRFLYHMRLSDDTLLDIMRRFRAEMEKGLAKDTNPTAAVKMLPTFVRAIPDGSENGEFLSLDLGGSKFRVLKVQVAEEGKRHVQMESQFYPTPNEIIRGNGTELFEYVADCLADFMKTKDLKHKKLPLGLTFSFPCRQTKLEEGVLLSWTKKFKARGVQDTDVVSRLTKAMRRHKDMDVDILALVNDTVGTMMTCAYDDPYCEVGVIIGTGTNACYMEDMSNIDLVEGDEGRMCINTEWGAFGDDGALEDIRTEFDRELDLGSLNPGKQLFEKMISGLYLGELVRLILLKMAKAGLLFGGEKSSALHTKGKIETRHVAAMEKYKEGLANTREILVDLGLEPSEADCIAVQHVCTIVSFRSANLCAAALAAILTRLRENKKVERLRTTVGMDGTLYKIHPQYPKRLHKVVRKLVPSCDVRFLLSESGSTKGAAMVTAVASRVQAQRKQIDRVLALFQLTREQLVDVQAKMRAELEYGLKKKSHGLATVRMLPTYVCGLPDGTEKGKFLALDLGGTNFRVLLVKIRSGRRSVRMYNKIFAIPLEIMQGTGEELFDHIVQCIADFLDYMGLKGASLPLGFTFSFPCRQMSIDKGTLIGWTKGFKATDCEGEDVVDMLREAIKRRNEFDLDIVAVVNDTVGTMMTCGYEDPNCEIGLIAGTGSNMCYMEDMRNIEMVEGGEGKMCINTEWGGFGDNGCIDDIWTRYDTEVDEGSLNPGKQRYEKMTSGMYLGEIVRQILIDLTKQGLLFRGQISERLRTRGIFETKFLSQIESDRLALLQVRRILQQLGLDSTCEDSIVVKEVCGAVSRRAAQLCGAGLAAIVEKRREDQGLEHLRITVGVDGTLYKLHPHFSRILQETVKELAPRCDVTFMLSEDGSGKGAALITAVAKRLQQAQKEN
Put plainly: HKDC1 hexokinase activators, dose response, biochemical, W721R variant (AID 504730). In kind it is functional.

The target of assay [4] is T3, Voltage-gated N-type calcium channel alpha-1B subunit/Amyloid beta A4 precursor protein-binding family A member 1 (Homo sapiens, UniProt Q00975+Q02410). In kind it is protein assay.
In assay [5] the target is T3, Voltage-gated N-type calcium channel alpha-1B subunit/Amyloid beta A4 precursor protein-binding family A member 1. In kind it is protein assay. The source holds these as a separate data set.
The target is the same in assay [6]. Put plainly: disruptors of Mint-PDZ/N-type channel peptide interaction – biochemical, HTRF, SAR follow-up (AID 2489). In kind it is functional. In general terms: Time-resolved FRET reads energy transfer from a long-lived donor to a nearby acceptor.
The next assay has as its target Troponin, cardiac muscle (Homo sapiens, UniProt P19429+P45379+P63316). Put plainly: Fluorescence-based biochemical high throughput dose response assay for activators of the calcium sensitivity of cardiac Regulated Thin Filaments (RTF). [Related pubchem assays (depositor defined):AID493008, AID493018, AID504382, AID504383]. It is filed as protein-complex assay.
The target in assay [7] is DNA dC->dU-editing enzyme APOBEC-3A (Homo sapiens, UniProt P31941). The assay is described as follows: Dose Response confirmation of small molecule APOBEC3A DNA Deaminase Inhibitors via a fluorescence-based single-stranded DNA deaminase assay. [Related pubchem assays (depositor defined):AID493011, AID493024]. In kind it is functional.
Assay [8] concerns the target DNA dC->dU-editing enzyme APOBEC-3G (Homo sapiens, UniProt Q9HC16). It is filed as functional.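 Also: Dose-response counterscreen measuring inhibition of APOBEC3G DNA deaminase activity, run while confirming APOBEC3A inhibitors.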
In assay [9] the target is Tyrosine-protein phosphatase non-receptor type 12 (Homo sapiens, UniProt Q05209). Put plainly: SAR Selectivity Analysis of small molecule inhibitors of PEST using pCAP in a fluorescence assay. [Related pubchem assays (depositor defined):AID1779, AID1784, AID2135]. It is filed as functional.
The target in assay [10] is T4, Tyrosine-protein phosphatase non-receptor type 22 (Homo sapiens, UniProt Q9Y2R2).
T4 sequence (Q9Y2R2 whole entry): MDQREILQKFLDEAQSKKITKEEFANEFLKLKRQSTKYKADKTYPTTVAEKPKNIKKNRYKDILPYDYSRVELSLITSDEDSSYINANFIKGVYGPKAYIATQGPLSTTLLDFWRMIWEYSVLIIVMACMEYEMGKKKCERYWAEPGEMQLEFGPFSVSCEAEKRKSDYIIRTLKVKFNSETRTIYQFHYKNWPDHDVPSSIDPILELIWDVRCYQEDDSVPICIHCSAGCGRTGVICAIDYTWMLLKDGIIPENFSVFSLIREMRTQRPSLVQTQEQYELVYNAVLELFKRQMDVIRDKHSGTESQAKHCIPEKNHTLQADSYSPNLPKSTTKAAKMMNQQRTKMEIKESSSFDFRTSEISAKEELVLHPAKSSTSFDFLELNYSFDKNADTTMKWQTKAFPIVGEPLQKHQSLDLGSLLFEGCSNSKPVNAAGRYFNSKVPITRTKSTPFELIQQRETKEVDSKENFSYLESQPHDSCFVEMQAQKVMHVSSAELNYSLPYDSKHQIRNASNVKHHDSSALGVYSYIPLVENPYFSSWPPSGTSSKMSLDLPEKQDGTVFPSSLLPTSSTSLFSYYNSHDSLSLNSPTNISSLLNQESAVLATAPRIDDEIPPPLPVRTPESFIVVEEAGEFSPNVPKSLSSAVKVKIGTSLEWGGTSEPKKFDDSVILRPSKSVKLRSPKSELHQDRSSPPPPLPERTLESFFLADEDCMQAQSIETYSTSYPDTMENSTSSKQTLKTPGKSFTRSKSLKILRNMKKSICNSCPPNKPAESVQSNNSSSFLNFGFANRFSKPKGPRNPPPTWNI
Put plainly: SAR LYP1 Fluorescent Assay using OMFP substrate for In Vitro dose response studies - Set 3. [Related pubchem assays (depositor defined):AID1779, AID1784, AID2140, AID2686]. It is filed as functional.

For assay [11], the target named is T5, Tyrosine-protein phosphatase non-receptor type 7 (Homo sapiens, UniProt P35236).
T5 sequence (P35236 whole entry): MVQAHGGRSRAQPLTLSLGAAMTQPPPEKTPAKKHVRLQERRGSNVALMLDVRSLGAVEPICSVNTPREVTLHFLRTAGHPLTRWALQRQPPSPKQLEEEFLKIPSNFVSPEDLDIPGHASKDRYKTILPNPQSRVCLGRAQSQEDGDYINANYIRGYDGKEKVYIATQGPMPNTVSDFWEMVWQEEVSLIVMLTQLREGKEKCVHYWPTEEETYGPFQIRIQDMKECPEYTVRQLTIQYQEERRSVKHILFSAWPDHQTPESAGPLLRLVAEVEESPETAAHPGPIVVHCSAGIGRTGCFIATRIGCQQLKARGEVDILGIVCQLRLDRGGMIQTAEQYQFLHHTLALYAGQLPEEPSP
Put plainly: HePTP (PTPN7) phosphatase inhibitor potency, SAR follow-up, biochemical, set 2 (AID 449736). It is filed as functional.

The target in assay [12] is T4, Tyrosine-protein phosphatase non-receptor type 22. The assay is described as follows: LYP (PTPN22) phosphatase inhibitor potency, SAR follow-up, biochemical, pCAP fluorogenic substrate, fluorescence, set 3 (AID 449727). In kind it is functional.
Assay [13] deals with Eukaryotic translation initiation factor 4E (Mus musculus, UniProt P63073). The assay is described as follows: eIF4E–eIF4G protein interaction inhibitors, dose response, biochemical, TR-FRET (AID 855).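 Also: potency for disrupting eIF4E binding to eIF4GI seen as loss of FRET.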 In kind it is functional.

Active and inactive are the calls of the source. Rule as the data show it, for most assays here: actives have a measured IC50 and inactives only a lower limit.

We go through eight compounds from ChEMBL document CHEMBL1201862, “PubChem BioAssay data set” (2004).

T3 sequence (Q00975 whole entry): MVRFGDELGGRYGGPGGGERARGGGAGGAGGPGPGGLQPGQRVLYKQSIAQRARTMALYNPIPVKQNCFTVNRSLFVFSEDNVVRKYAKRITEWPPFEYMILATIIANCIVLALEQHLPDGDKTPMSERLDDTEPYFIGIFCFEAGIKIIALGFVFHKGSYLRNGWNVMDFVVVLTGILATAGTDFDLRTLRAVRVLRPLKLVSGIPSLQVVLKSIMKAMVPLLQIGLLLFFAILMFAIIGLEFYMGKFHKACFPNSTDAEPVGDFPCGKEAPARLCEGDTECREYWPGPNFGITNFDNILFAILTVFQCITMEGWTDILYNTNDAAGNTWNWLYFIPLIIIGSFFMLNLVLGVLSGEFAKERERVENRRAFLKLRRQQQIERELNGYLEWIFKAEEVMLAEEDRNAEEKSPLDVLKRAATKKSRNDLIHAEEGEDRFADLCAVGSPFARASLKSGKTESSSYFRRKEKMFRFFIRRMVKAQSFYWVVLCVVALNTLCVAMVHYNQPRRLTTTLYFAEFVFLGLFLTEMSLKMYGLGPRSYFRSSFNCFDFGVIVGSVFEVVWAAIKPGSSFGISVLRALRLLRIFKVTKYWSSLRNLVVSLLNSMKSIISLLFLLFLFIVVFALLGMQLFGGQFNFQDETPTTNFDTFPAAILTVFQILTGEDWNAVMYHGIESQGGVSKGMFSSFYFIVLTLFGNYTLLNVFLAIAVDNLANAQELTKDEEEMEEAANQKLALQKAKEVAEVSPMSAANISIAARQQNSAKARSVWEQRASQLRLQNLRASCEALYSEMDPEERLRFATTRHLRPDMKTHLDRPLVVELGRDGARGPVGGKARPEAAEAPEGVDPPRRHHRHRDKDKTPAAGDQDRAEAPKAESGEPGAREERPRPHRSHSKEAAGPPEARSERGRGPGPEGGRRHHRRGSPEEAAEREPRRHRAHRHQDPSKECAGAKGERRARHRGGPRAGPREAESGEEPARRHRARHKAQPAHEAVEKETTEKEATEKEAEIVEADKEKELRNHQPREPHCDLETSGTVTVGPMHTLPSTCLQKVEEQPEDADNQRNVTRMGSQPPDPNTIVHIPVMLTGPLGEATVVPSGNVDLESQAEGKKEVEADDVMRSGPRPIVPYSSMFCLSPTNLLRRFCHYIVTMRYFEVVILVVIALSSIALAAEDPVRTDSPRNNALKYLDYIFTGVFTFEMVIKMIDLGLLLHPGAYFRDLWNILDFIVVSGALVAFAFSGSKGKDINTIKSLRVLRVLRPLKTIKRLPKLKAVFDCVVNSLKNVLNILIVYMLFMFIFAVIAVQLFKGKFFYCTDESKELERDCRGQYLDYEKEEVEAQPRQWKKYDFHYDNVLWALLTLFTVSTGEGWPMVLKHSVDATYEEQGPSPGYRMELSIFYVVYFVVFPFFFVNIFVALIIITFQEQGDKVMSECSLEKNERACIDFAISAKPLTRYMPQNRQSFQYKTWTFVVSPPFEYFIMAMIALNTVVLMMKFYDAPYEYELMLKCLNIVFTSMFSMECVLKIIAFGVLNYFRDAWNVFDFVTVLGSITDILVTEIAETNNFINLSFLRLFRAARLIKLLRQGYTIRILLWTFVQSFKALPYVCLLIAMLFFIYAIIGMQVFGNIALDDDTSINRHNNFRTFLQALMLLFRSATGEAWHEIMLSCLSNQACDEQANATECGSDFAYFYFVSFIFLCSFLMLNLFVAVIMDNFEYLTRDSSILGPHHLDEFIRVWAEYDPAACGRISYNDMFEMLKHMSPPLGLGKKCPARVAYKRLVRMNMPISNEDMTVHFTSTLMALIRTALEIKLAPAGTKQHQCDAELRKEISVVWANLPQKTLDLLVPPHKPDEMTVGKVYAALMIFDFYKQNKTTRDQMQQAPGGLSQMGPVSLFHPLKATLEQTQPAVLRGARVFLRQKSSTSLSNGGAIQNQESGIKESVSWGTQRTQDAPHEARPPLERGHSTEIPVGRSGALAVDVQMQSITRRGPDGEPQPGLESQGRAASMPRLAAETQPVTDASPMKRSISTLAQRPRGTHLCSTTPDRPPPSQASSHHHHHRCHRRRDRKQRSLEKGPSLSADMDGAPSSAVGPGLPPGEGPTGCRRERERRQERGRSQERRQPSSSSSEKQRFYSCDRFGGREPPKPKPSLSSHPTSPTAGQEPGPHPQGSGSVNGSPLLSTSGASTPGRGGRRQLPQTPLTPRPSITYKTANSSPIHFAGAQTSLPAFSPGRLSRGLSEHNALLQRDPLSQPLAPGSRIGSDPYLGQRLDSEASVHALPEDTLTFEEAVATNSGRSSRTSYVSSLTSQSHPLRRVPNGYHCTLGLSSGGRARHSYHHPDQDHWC
T3 sequence (Q02410 whole entry): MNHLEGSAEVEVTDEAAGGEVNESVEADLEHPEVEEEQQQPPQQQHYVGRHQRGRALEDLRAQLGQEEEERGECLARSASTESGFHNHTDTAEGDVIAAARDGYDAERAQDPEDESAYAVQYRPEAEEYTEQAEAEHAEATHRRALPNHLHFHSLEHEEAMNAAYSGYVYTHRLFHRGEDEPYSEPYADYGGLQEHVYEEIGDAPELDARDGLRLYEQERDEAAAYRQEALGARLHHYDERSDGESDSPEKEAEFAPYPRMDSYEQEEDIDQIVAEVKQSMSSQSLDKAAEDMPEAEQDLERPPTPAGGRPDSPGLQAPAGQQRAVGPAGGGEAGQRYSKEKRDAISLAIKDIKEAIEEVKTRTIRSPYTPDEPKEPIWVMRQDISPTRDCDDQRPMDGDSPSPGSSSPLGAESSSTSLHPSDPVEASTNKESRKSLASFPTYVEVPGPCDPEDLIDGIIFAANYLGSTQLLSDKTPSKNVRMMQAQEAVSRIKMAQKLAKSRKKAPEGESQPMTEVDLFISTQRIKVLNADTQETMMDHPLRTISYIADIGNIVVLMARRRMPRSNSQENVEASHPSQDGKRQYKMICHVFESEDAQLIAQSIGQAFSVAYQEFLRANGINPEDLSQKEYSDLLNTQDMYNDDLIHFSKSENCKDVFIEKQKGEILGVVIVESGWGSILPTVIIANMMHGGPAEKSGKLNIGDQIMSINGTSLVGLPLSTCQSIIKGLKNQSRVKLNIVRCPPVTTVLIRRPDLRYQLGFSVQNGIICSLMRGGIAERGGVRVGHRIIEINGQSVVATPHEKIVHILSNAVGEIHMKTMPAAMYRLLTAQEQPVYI
Chain of DNA dC->dU-editing enzyme APOBEC-3G (Q9HC16 whole entry): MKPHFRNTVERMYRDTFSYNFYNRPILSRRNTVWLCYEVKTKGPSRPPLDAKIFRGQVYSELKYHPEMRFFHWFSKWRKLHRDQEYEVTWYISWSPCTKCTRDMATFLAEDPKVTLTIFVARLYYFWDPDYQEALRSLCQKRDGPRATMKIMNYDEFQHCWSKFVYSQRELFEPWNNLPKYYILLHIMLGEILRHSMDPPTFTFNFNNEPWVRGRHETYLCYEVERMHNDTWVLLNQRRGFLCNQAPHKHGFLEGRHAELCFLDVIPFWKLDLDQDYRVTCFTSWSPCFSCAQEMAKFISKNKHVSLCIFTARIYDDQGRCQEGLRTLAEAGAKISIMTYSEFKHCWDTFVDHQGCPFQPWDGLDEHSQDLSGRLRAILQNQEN
Chain of Alkaline phosphatase, placental type (P05187 whole entry): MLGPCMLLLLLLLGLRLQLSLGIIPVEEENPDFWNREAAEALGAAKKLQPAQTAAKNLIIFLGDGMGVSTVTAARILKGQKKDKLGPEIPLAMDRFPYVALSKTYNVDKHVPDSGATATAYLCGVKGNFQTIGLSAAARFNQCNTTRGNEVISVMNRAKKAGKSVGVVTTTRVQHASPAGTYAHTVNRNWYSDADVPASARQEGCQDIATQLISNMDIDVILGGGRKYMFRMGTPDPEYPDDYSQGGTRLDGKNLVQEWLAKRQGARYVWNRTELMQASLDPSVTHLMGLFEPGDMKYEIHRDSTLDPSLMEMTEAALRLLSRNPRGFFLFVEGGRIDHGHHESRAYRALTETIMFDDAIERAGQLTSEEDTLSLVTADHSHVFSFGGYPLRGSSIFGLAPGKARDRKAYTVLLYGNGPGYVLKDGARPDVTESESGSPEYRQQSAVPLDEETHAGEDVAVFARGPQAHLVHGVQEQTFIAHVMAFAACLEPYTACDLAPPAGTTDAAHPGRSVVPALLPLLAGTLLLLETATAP
Chain of DNA dC->dU-editing enzyme APOBEC-3A (P31941 whole entry): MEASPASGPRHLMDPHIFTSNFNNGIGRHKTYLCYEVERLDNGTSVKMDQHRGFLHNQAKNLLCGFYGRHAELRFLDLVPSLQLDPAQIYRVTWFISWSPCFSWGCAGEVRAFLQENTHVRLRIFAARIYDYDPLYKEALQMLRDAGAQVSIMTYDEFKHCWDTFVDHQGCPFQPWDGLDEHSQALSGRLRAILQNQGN
Chain of Glyceraldehyde-3-phosphate dehydrogenase (P04406 whole entry): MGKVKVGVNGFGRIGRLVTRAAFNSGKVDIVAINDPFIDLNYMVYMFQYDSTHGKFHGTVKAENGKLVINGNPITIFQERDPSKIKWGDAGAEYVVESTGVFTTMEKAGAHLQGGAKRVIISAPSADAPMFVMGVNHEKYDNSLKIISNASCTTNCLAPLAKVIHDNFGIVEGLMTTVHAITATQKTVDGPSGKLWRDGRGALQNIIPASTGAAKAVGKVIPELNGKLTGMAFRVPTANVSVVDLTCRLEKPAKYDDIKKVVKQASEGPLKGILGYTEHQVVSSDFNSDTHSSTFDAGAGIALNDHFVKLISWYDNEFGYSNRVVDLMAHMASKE
Chain of Eukaryotic translation initiation factor 4E (P63073 whole entry): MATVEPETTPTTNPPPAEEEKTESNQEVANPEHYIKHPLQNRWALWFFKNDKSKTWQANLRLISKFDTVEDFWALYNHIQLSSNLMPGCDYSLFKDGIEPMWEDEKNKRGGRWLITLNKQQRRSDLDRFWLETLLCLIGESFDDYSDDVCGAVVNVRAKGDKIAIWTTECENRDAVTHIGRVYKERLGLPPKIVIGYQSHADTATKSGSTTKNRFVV

As to `CC(C)(C)C1(C)Oc2cccc(O)c2O1` (stereo not drawn), the IC50 in assay [1] and in [2] was > 100 µM (inactive) in each case.

As for `CN1CCN(C(=O)c2cc(-c3ccc(Cl)cc3Cl)n[nH]2)CC1`, the IC50 is > 100 µM (not active) in assay [3] and > 100 µM (inactive) in assay [1].

Turning to `O=C(COC(=O)c1n[nH]c2ccccc12)c1cccc(Br)c1`, the EC50 on Hexokinase HKDC1 was > 80 µM (inactive).

For `CC(=O)NS(=O)(=O)c1ccc(NC(=O)/C=C/c2ccc(C)o2)cc1`, the IC50 in assay [4] is 6.9 µM (active); in [5], 2.19 µM (active); in assay [6], > 56.8 µM (inactive).

As for `O=C1c2ccccc2C(Nc2cccnc2)N1Cc1ccccc1Cl` (stereo not drawn), the EC50 at Troponin, cardiac muscle is > 71.5 µM (inactive).

On to `CSc1ccc(S(=O)(=O)N2CCC(C(=O)NCc3ccccn3)CC2)cc1`, for which the IC50 was 6.18 µM (active) in assay [7] and 13.9 µM (active) in assay [8].

In the case of `COc1ccc(CN2C(=O)/C(=C/c3ccc(-c4ccc(Cl)c(C(=O)O)c4)o3)SC2=S)cc1`, the IC50 was 3.13 µM (active) in [9]; 44.5 µM (active) in assay [10]; 0.331 µM (active) in assay [11]; 8.93 µM (active) in assay [12]; 16.4 µM (active) in assay [13].

In the case of `CC(C)(C)OC(=O)N1CC(O)CC1C(=O)OCC(=O)c1ccc(-c2ccccc2)cc1` (stereo not drawn), the IC50 in [7] is 1.79 µM (active); in assay [8], 2.89 µM (active).

Usually IC50 stands for the concentration that inhibits the measured activity by half. What is called EC50 is the concentration that produces a half-maximal response.
